How the values were obtained:
human GHS-R 1a [1] = target: T1, human GHS-R 1a (Homo sapiens, UniProt Q92847); test: In vitro intracellular calcium release assay using human GHS-R 1a transfected CHO cells; format: cell-based; set-up: expressed in transfected cells; host or cells: CHO-K1 Chinese hamster ovary cells (ATCC No. CCL-61), transient transfection by electroporation; conditions: for activation at 1 µM: intracellular calcium release, compound at 10^-6 M, relative to basal level (0%) and 1 μM ghrelin (100%); for EC50: agonists, dose-response curve of intracellular calcium release
T1 sequence (Q92847 whole entry): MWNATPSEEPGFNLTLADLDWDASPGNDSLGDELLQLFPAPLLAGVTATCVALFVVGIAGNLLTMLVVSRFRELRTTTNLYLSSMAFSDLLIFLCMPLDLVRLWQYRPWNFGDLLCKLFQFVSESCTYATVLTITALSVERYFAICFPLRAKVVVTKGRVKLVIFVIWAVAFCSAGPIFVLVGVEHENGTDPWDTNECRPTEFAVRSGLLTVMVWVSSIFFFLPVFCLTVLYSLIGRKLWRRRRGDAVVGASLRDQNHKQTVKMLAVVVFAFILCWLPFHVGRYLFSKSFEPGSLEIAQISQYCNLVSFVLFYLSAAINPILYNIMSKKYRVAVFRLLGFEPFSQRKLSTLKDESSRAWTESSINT
Protocol: The ability to properly activate the receptors is assessed for any compound of the invention by comparing the degree of activation (increase of intracellular calcium) of GHS-R 1a by the compound to be tested (at 10^−6 M concentration) to the degree of activation (increase of intracellular calcium) of GHS-R 1a by 10^−6 M ghrelin (100%) and to the basal level (0%). Such assessment can be readily performed by the skilled artisan due to his expert knowledge. The output is a percentage value for each compound to be tested. […]
III) In Vitro Intracellular Calcium Release Assay Using Human GHS-R 1a Transfected CHO Cells
The potential of the compounds of the invention to modulate GHS receptor activity was assessed by an in vitro intracellular Calcium release assay employing CHO cells that were transfected with human GHS-R 1a.
Release of intracellular calcium or inhibition thereof was measured using the fluorescent calcium indicator assay (FLIPR) and Fluo-4 AM.
CHO cells (CHO-KI Chinese Hamster Ovary cell line, ATCC No. CCL-61) were transiently transfected with human GHS-R 1a cDNA by electroporation and plated into 96-well black bottom plates (Corning 3603) (80,000 cells/well). Transient transfections were performed using the Easyject Optima Electroporator (Equibio), according to the manufacturer's instructions.
Transfected cells were grown in Dulbecco's modified Eagle's medium without phenol red, supplemented with 10% (v/v) non-essential amino acids, […] glutamine and streptomycin-penicillin (250 μg/ml-250 u/ml) (all purchased from Cambrex) at 37° C., 5% CO2 in a humidified atmosphere for 24 hours.
After incubation, transfected cells were washed with 150 μl Buffer A [Hanks' balanced salt solution (Sigma H-6648), 0.5% (v/v) BSA (Sigma A-7906), 20 mM CaCl2, 2.5 mM probenecid (pH 7.4, dissolved in 1 M NaOH) (Sigma P-8761)] and were then loaded with fluorescent calcium indicator Fluo-4 AM (10^−6 M) (Interchim UP72972) prepared in Buffer A, additionally containing 0.06% pluronic acid (Molecular probes P-6867) (a […] detergent which facilitates Fluo-4AM ester loading). (Loading: 100 μl per well of Buffer A containing 120 μl/ml Pluronic Acid and 1 μM Fluo-4AM was added to the cells).
After loading with Fluo-4 AM, transfected cells were incubated for 1 hour in the dark at 37° C.
Compounds to be tested were dissolved in Buffer A in triplicates at a concentration of 10^−6 M and distributed into another 96-well plate (Fisher Labosi A1210500).
Following incubation, excess Fluo-4AM was removed, 100 μl of Buffer A was added to each well at room temperature and immediately removed by aspiration. This was then repeated, before adding 50 μl Buffer A to each well.
Transfected cells were further incubated room temperature for 30 min to allow complete de-esterification of intracellular Fluo-4AM esters.
Subsequently, both plates, the black-bottom plate containing transfected cells and the microtiter plate containing the compounds to be tested, were then placed into a temperature-regulated (25° C.) FlexStation machine (benchtop scanning fluorometer Flex Station II, Molecular Devices, Sunnyvale, Calif., USA) for fluorescence output measurements.
Basal fluorescence output from the transfected cells was measured for 15 sec and then 50 μl of the compounds to be tested were automatically distributed into the wells containing the transfected cells. The fluorescence output was then recorded for a further 45 sec.
Excitation and emission wavelengths were 485 nm and 525 nm, respectively. Basal fluorescence intensity of Fluo-4AM-loaded transfected cells without compounds to be tested varied between 800-1200 arbitrary units, whereas maximal fluorescence output of dye-loaded transfected cells upon incubation with the compounds to be tested varied between 5000-7000 arbitrary units and was equivalent to that achieved by stimulation of dye-loaded transfected cells with 10^−6 M ghrelin. […]

human GHS-R 1a [2] = target: T1, human GHS-R 1a; test: as above; format: cell-based; set-up: expressed in transfected cells; host or cells: CHO-K1 Chinese hamster ovary cells (ATCC No. CCL-61), transient transfection by electroporation; conditions: antagonist dissociation constant, antagonist inhibition curves in the presence of 10^-7 M ghrelin, Cheng-Prusoff equation, Fluo-4 AM
human GHS-R 1a [3] = target: T1, human GHS-R 1a; test: GHS-R 1a receptor-ligand binding assay (membrane preparations from transfected LLC PK-1 cells); set-up: expressed in transfected cells; conditions: displacement of 125I-His9-ghrelin; plasma membranes of LLC PK-1 cells transiently transfected with human GHS-R 1a; mean of at least two independent experiments in triplicates
Protocol: II) GHS-R 1a Receptor-Ligand Binding Assay (Membrane Preparations from Transfected LLC PK-1 Cells)
The GHS-R 1a receptor binding/affinity studies were performed according to Guerlavais et al. (J. Med. Chem. 2003, 46: 1191-1203).
Isolated plasma membranes from LLC PK-1 cells, a renal epithelial cell line originally derived from porcine kidneys (ECACC No. 86121112) (10 μg of protein), that were transiently transfected with human GHS-R 1a cDNA (Guerlavais et al., J. Med. Chem. 2003, 46: 1191-1203), were incubated in homogenization buffer HB [50 mM Tris (pH 7.3), 5 mM MgCl2, 2.5 mM EDTA, and 30 μg/mL bacitracin (Sigma)] for 60 min at 25° C. (steady-state conditions) with […] ^125I-His^9-ghrelin (Amersham) in the presence or absence of competing compounds (compounds of the invention).
Nonspecific binding was defined using an excess (10^−6 M) of ghrelin. The binding reaction was stopped by addition of 4 mL of ice-cold HB followed by rapid filtration over Whatman GP/C filters presoaked with 0.5% polyethyleneimine to prevent excessive binding of radioligand to the filters. Filters were rinsed three times with 3 mL of icecold wash buffer [50 mM Tris (pH 7.3), 10 mM MgCl2, 2.5 mM EDTA, and 0.015% (w/v) X-100 Triton], and the radioactivity bound to membranes was measured in a gammacounter (Kontron Analytical Gamma Matic, Automatic gamma counting system).
The concentration of test compounds required to inhibit radiolabelled ghrelin binding by 50% (IC50) was determined by fitting competitive binding curves using non-linear regression (PRISM 3.0, Graph Pad San Diego, USA).
In the following table 2 results obtained for selected compounds of the invention are presented in comparison to an example of the prior art. IC50 values given are the mean of at least two independent experiments performed in triplicates.

activation at 1 µM (human GHS-R 1a [1])	Kb (human GHS-R 1a [2])	IC50 (human GHS-R 1a [3])	EC50 (human GHS-R 1a [1])	Structure (SMILES)
0%	215 nM			COc1ccc(Cn2c(CCc3c[nH]c4ccccc34)nnc2[C@H](Cc2c[nH]c3ccccc23)NC(=O)c2cnccn2)cc1 [Compound 29, N-((S)-1-(5-(2-(1H-indol-3-yl)ethyl)-4-(4-methoxybenzyl)-4H-1,2,4-triazol-3-yl)-2-(1H-indol-3-yl)ethyl)pyrazine-2-carboxamide]
94%		4 nM	2.4 nM	O=C(N[C@H](Cc1c[nH]c2ccccc12)c1nnc(CCc2c[nH]c3ccccc23)n1Cc1cccc2ccccc12)C1CCNCC1 [Compound 17, N-((R)-1-(5-(2-(1H-indol-3-yl)ethyl)-4-((naphthalen-1-yl)methyl)-4H-1,2,4-triazol-3-yl)-2-(1H-indol-3-yl)ethyl)piperidine-4-carboxamide]
		35 nM	6.4 nM	NC1(C(=O)N[C@H](Cc2c[nH]c3ccccc23)c2nnc(CCCc3c[nH]c4ccccc34)n2Cc2ccccc2)CCNCC1 [Compound 43, N-((R)-1-(5-(3-(1H-indol-3-yl)propyl)-4-benzyl-4H-1,2,4-triazol-3-yl)-2-(1H-indol-3-yl)ethyl)-4-aminopiperidine-4-carboxamide]
70%		11.1 nM	2.5 nM	COc1ccc(Cn2c(CCc3c[nH]c4ccccc34)nnc2[C@@H](Cc2c[nH]c3ccccc23)NC(=O)c2cccc(CN)c2)cc1 [Compound 13, N-((R)-1-(5-(2-(1H-indol-3-yl)ethyl)-4-(4-methoxybenzyl)-4H-1,2,4-triazol-3-yl)-2-(1H-indol-3-yl)ethyl)-3-(amino-methyl)benzamide]
100%		44.5 nM	10.1 nM	NC1(C(=O)N[C@H](Cc2c[nH]c3ccccc23)c2nnc(CCc3ccccc3)n2Cc2cccc3ccccc23)CCNCC1 [Compound 49, N-((R)-2-(1H-indol-3-yl)-1-(4-((naphthalen-1-yl)methyl)-5-phenethyl-4H-1,2,4-triazol-3-yl)ethyl)-4-aminopiperidine-4-carboxamide]
	79 nM	125 nM		O=C(N[C@H](Cc1c[nH]c2ccccc12)c1nnc(CCc2ccccc2)n1Cc1cccc2ccccc12)c1ccccn1 [Compound 16, N-((R)-2-(1H-indol-3-yl)-1-(4-((naphthalen-1-yl)methyl)-5-phenethyl-4H-1,2,4-triazol-3-yl)ethyl)picolinamide]
100%		600 nM	12 nM	O=C(N[C@H](Cc1c[nH]c2ccccc12)c1nnc(CCCc2c[nH]c3ccccc23)n1Cc1cccc2ccccc12)C1CCCN1 (stereo partly drawn) [Compound 44, N-((R)-1-(5-(3-(1H-indol-3-yl)propyl)-4-((naphthalen-1-yl)methyl)-4H-1,2,4-triazol-3-yl)-2-(1H-indol-3-yl)ethyl)pyrrolidine-2-carboxamide]
100%		150 nM	38 nM	COc1ccc(Cn2c(CCc3c[nH]c4ccccc34)nnc2[C@@H](Cc2c[nH]c3ccccc23)NC(=O)C2(N)CCNCC2)cc1 [Compound 47, N-((R)-1-(5-(2-(1H-indol-3-yl)ethyl)-4-(4-methoxybenzyl)-4H-1,2,4-triazol-3-yl)-2-(1H-indol-3-yl)ethyl)-4-aminopiperidine-4-carboxamide]
3%	57 nM			COc1ccc(Cn2c(CCc3ccccc3)nnc2[C@@H](Cc2c[nH]c3ccccc23)NC(=O)c2ccnnc2)c(OC)c1 [Compound 7, N-((R)-1-(4-(2,4-dimethoxybenzyl)-5-phenethyl-4H-1,2,4-triazol-3-yl)-2-(1H-indol-3-yl)ethyl)pyridazine-4-carboxamide]
		21.1 nM	1 nM	O=C(N[C@H](Cc1c[nH]c2ccccc12)c1nnc(CCCc2c[nH]c3ccccc23)n1Cc1cccc2ccccc12)C1CCNCC1 [Compound 39, N-((R)-1-(5-(3-(1H-indol-3-yl)propyl)-4-((naphthalen-1-yl)methyl)-4H-1,2,4-triazol-3-yl)-2-(1H-indol-3-yl)ethyl)piperidine-4-carboxamide]
106%		16 nM	4.4 nM	COc1ccc(Cn2c(CCc3cc4ccccc4[nH]3)nnc2[C@@H](Cc2c[nH]c3ccccc23)NC(=O)C2(N)CCNCC2)cc1 [Compound 3, N-((R)-1-(5-(2-(1H-indol-2-yl)ethyl)-4-(4-methoxybenzyl)-4H-1,2,4-triazol-3-yl)-2-(1H-indol-3-yl)ethyl)-4-aminopiperidine-4-carboxamide]
90%		6.6 nM	4.1 nM	COc1ccc(Cn2c(CCc3ccccc3)nnc2[C@@H](Cc2c[nH]c3ccccc23)NC(=O)C2(N)CCNCC2)cc1 [Compound 4, N-((R)-1-(4-(4-methoxybenzyl)-5-phenethyl-4H-1,2,4-triazol-3-yl)-2-(1H-indol-3-yl)ethyl)-4-aminopiperidine-4-carboxamide]
31%		11.8 nM	16 nM	COc1ccc(Cn2c(CCc3ccccc3)nnc2[C@@H](Cc2c[nH]c3ccccc23)NC(=O)c2ccccc2)c(OC)c1 [Compound 5, N-((R)-1-(4-(2,4-dimethoxybenzyl)-5-phenethyl-4H-1,2,4-triazol-3-yl)-2-(1H-indol-3-yl)ethyl)benzamide]
100%		500 nM	34 nM	CC(C)(N)C(=O)N[C@H](Cc1c[nH]c2ccccc12)c1nnc(CCCc2c[nH]c3ccccc23)n1Cc1ccccc1 [Compound 42, N-((R)-1-(5-(3-(1H-indol-3-yl)propyl)-4-benzyl-4H-1,2,4-triazol-3-yl)-2-(1H-indol-3-yl)ethyl)-2-amino-2-methylpropanamide]

Reference: patent US20090239877A1, “NOVEL 1,2,4-TRIAZOLE DERIVATIVES AND PROCESS OF MANUFACTURING THEREOF” (AETERNA ZENTARIS GmbH, priority 2008, published 2009)
